Reference: US5075308A, “Method for treating urinary obstruction” (Hitachi Chemical Co., Ltd., priority 1989, dated 1991)

Legend:
[1] = test system: α1-adrenoceptor (thoracic aorta); assay: α1-adrenoceptor-blocking activity in rabbit thoracic aorta strips (noradrenaline contraction, Schild plot); conditions: rabbit thoracic aorta helical strips, endothelium denuded; antagonism of noradrenaline contraction; mean (± standard deviation)
Description: (§1) Male albino rabbits weighing 2.2-2.5 kg were intravenously given pentobarbital (Nembutal® manufactured by Abbott) at a dose of 35 mg/kg body weight and sacrificed by exsanguination. The thoracic aorta and urinary bladder were rapidly excised and placed in modified Krebs solution. After removal of fat and unnecessary connective tissue, helical strips (3×15 mm in size) of the thoracic aorta and longitudinal strips (3×15 mm in size) of trigonum vesicae were prepared and used as specimen. The helical strips were carefully denuded of endothelium attached thereto in order to avoid any effect of the endothelium-derived vascular relaxing factors.
(§2) The preparations were vertically mounted in an organ bath filled with 20 ml of the modified Krebs solution (aerated with a gas mixture of 95 vol % of oxgen and 5 vol % of carbon dioxide and kept at 37° C.). The other end of each strip was attached to a transducer for tension measurement (the model TB-6llT manufactured by Nihon Kohden Kogyo K.K.). Changes in tension were recorded on a pen-writing oscillograph (the model Wi-68lG manufactured by Nihon Kohden Kogyo K.K.). Composition of the modified Krebs solution used herein was as follows: NaCl 115.0, KCl 4.7, MgSO4.7H2 O 1.2, CaCl2.2H2 O 2.5, KH2 PO4 1.2, NaHCO3 25.0 and glucose 10.0 (concentration in mM). The solution contained 10^-6 M propranolol, a […] (manufactured by Sigma). The loading tension was adjusted to attain a weight of 2 g for aorta and a weight of 1 g for trigone. The strips were allowed to equilibrate for at least 60 min. before initiation of the experiment, and during this period the modified Krebs solution in the organ bath was replaced every 20 min.
(§3) First, noradrenaline (manufactured by Sigma, 10^-6 -10^-4 M) was cumulatively added to each specimen to prepare a concentration-response curve to noradrenaline (to determine the 50% effective concentration ED50). […] The results were analyzed by Schild plotting to determine pA2 ([…] of concentration of the blocking agent necessary for parallel shift of the 50% contraction caused by noradrenaline to a concentration two fold as high).

[2] = test system: α1-adrenoceptor (trigonum vesicae); assay: α1-adrenoceptor-blocking activity in rabbit trigonum vesicae strips (noradrenaline contraction, Schild plot); conditions: for Activity ratio: ratio of pA2 (calculated as concentration) with trigonum vesicae to pA2 with thoracic aorta
Description: as §1, §2, §3

[3] = target: T1, α1-adrenoceptor (trigonum vesicae) (Oryctolagus cuniculus, UniProt O02824); assay: as above; conditions: rabbit trigonum vesicae longitudinal strips; antagonism of noradrenaline contraction; mean (± standard deviation); read-out: pA2, trigonum vesicae (converted)
T1 construct: longitudinal strips (3×15 mm in size) of trigonum vesicae; from tissue; host or cells: rabbit urinary bladder, longitudinal strips of trigonum vesicae
T1 sequence (O02824 1-466): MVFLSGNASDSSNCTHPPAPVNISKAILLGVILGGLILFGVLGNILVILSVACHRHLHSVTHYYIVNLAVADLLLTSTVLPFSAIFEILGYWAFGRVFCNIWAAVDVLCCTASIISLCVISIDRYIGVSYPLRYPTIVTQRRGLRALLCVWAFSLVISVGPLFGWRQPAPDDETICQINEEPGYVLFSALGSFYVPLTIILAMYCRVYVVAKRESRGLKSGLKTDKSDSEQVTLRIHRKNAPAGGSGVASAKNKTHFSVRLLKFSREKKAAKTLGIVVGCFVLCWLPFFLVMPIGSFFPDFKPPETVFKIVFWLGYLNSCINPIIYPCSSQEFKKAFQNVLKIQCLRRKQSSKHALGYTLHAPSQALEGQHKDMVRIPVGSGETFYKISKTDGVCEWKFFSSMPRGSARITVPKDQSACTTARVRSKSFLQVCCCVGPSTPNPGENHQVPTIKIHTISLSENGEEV
Description: as §1, §2, §3

Row | Structure (SMILES) | pA2, thoracic aorta [1] | Activity ratio [2] | Kb [3] [nM] | pA2 comparison trigonum vesicae vs thoracic aorta (in words) [2]
1 | COc1ccccc1N1CCN(CCNc2nc(C)c(C(C)=O)c(C)n2)CC1 [Compound 1, 2-[2-(4-(2-methoxyphenyl)-l-piperazinyl)ethyl]amino-5-acetyl-4,6-dimethylpyrimidine] | 7.35 | 5.25 | 8.51 | –
2 | CCOC(=O)c1c(C)nc(NCCCCN2CCN(c3ccccc3OC)CC2)nc1C [Compound 2, 2-[4-(4-(2-methoxyphenyl)-l-piperazinyl)butyl]amino-5-ethoxycarbonyl-4,6-dimethylpyrimidine] | 7.47 | 6.76 | 5.01 | –
3 | COc1ccccc1N1CCN(CCNc2nc(C)cc(C)n2)CC1 [Compound 3, 2-[2-(4-(2-methoxyphenyl)-l-piperazinyl)ethyl]amino-4,6-dimethylpyrimidine] | 7.67 | 3.02 | 7.08 | –
4 | CCOC(=O)c1c(C)nc(NCCCN2CCN(c3ccccc3OC)CC2)nc1C [Compound 4, 2-[3-(4-(2-methoxyphenyl)-l-piperazinyl)propyl]amino-5-ethoxycarbonyl-4,6-dimethylpyrimidine] | 7.65 | 4.27 | 5.25 | –
5 | COc1ccccc1N1CCN(CCNc2nccc(Cl)n2)CC1 [Compound 5, 2-[2-(4-(2-methoxyphenyl)-l-piperazinyl)ethyl]amino-4-chloropyrimidine] | 7.83 | 2.82 | 5.25 | –
6 | COc1ccccc1N1CCN(CCNc2ncccn2)CC1 [Compound 6, 2-[2-(4-(2-methoxyphenyl)-l-piperazinyl)ethyl]amino-pyrimidine] | 7.74 | 2.29 | 7.94 | –
7 | CCOC(=O)c1c(C)nc(NCCN2CCN(c3ccccc3OC)CC2)nc1C [Compound 7, 2-[2-(4-(2-methoxyphenyl)-l-piperazinyl)ethyl]amino-5-ethoxycarbonyl-4,6-dimethylpyrimidine] | 7.92 | 2.19 | 5.5 | –
8 | COc1ccnc(NCCN2CCN(c3ccccc3OC)CC2)n1 [Compound 8, 2-[2-(4-(2-methoxyphenyl)-l-piperazinyl)ethyl]amino-4-methoxypyrimidine] | 7.92 | 1.86 | 6.46 | –
9 | COc1ccnc(NCCCCN2CCN(c3ccccc3OC)CC2)n1 [Compound 9, 2-[4-(4-(2-methoxyphenyl)-l-piperazinyl)butyl]amino-4-methoxypyrimidine] | 7.96 | 1.78 | 6.17 | –
10 | COc1cc2nc(N3CCN(C(=O)c4ccco4)CC3)nc(N)c2cc1OC [Prazosin, reference compound] | 8.55 | – | – | larger pA2 in the thoracic aorta than in the trigonum vesicae
